PubChem BioAssay (NCI)
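All cell lines were grown in 96-well plates and treated with compound for 48 hours. The concentration for 50% growth inhibition is given as GI50. TGI denotes the concentration required for complete inhibition of growth.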

Experiments:
Assay in all cases: DTP human tumour cell line panel, 48 h
[1] = test system: HOP-92 NSCLC
[2] = test system: HT29 colon
[3] = test system: T-47D breast
[4] = test system: MDA-MB-468 breast
[5] = test system: DU-145 prostate
[6] = test system: UO-31 renal
[7] = test system: U251 CNS
[8] = test system: A498 renal
[9] = test system: SNB-19 CNS
[10] = test system: SF-268 CNS
[11] = test system: RPMI-8226 leukemia
[12] = test system: SF-539 CNS
[13] = test system: MOLT-4 leukemia
[14] = test system: OVCAR-5 ovarian
[15] = test system: SK-MEL-28 melanoma
[16] = test system: LOX IMVI melanoma
[17] = test system: IGROV1 ovarian
[18] = test system: HL-60(TB) leukemia
[19] = test system: HCC-2998 colon
[20] = test system: UACC-62 melanoma
[21] = test system: OVCAR-3 ovarian
[22] = test system: K-562 leukemia
[23] = test system: OVCAR-8 ovarian
[24] = test system: BT-549 breast
[25] = test system: CAKI-1 renal
[26] = test system: 786-0 renal
[27] = test system: SN12C renal
[28] = test system: OVCAR-4 ovarian
[29] = test system: NCI-H460 lung
[30] = test system: SR leukemia
[31] = test system: RXF 393 renal
[32] = test system: MALME-3M melanoma
[33] = test system: NCI-H226 lung
[34] = test system: SK-MEL-2 melanoma
[35] = test system: SW-620 colon
[36] = test system: SNB-75 CNS
[37] = test system: MDA-MB-231 breast
[38] = test system: NCI/ADR-RES ovarian
[39] = test system: HCT-116 colon
[40] = test system: CCRF-CEM leukemia
[41] = test system: NCI-H23 lung
[42] = test system: TK-10 renal
[43] = test system: HOP-62 NSCLC
[44] = test system: EKVX NSCLC
[45] = test system: SK-OV-3 ovarian
[46] = test system: HS 578T breast
[47] = test system: HCT-15 colon
[48] = test system: SK-MEL-5 melanoma
[49] = test system: COLO 205 colon
[50] = test system: MDA-MB-435
[51] = test system: SF-295 CNS
[52] = test system: KM12 colon
[53] = test system: UACC-257 melanoma
[54] = test system: M14 melanoma
[55] = test system: ACHN renal
[56] = test system: A549 NSCLC
[57] = test system: NCI-H522 lung
[58] = test system: MCF7 breast

Compound: CCN1CCN(Cc2ccc(C(=O)Nc3cccc(-c4cn(-c5ccc6oc(=O)ccc6c5)nn4)c3)cc2C(F)(F)F)CC1
- GI50 [1]: 11.1 µM
- TGI [1]: 39.8 µM
- GI50 [2]: 1770 nM
- TGI [2]: 3.72 µM
- GI50 [3]: > 100 µM
- TGI [3]: > 100 µM
- GI50 [4]: 12.3 µM
- TGI [4]: 27.4 µM
- GI50 [5]: 15.8 µM
- TGI [5]: 29.2 µM
- GI50 [6]: 10.6 µM
- TGI [6]: 22.4 µM
- GI50 [7]: 1910 nM
- TGI [7]: 4.03 µM
- GI50 [8]: 29.1 µM
- TGI [8]: > 100 µM
- GI50 [9]: 17.3 µM
- TGI [9]: 31.1 µM
- GI50 [10]: 18.1 µM
- TGI [10]: 45.6 µM
- GI50 [11]: 2620 nM
- TGI [11]: 12.2 µM
- GI50 [12]: 12.2 µM
- TGI [12]: 24.6 µM
- GI50 [13]: 2880 nM
- TGI [13]: 12.9 µM
- GI50 [14]: 16.2 µM
- TGI [14]: 29.7 µM
- GI50 [15]: 1810 nM
- TGI [15]: 3.29 µM
- GI50 [16]: 1690 nM
- TGI [16]: 3.06 µM
- GI50 [17]: 10.5 µM
- TGI [17]: 22.3 µM
- GI50 [18]: 30.1 µM
- TGI [18]: > 100 µM
- GI50 [19]: 2520 nM
- TGI [19]: 5.47 µM
- GI50 [20]: 12.3 µM
- TGI [20]: 24.7 µM
- GI50 [21]: 16.5 µM
- TGI [21]: 30 µM
- GI50 [22]: 2340 nM
- TGI [22]: 7.26 µM
- GI50 [23]: 7.71 µM
- TGI [23]: 20.3 µM
- GI50 [24]: > 100 µM
- TGI [24]: > 100 µM
- GI50 [25]: 16.5 µM
- TGI [25]: 39.7 µM
- GI50 [26]: 2050 nM
- TGI [26]: 4.05 µM
- GI50 [27]: 14.3 µM
- TGI [27]: 27.4 µM
- GI50 [28]: 13.9 µM
- TGI [28]: 27.6 µM
- GI50 [29]: 3.61 µM
- TGI [29]: 12.6 µM
- GI50 [30]: 6.47 µM
- TGI [30]: 52.6 µM
- GI50 [31]: 1770 nM
- TGI [31]: 3.47 µM
- GI50 [32]: 1600 nM
- TGI [32]: 3 µM
- GI50 [33]: 13.6 µM
- TGI [33]: 27 µM
- GI50 [34]: 58.3 µM
- TGI [34]: > 100 µM
- GI50 [35]: 1710 nM
- TGI [35]: 3.41 µM
- GI50 [36]: 12.2 µM
- TGI [36]: 24.6 µM
- GI50 [37]: 1780 nM
- TGI [37]: 3.2 µM
- GI50 [38]: 1820 nM
- TGI [38]: 3.54 µM
- GI50 [39]: 1820 nM
- TGI [39]: 3.68 µM
- GI50 [40]: 2230 nM
- TGI [40]: 8.3 µM
- GI50 [41]: 1790 nM
- TGI [41]: 3.56 µM
- GI50 [42]: 19.9 µM
- TGI [42]: 34.1 µM
- GI50 [43]: 16.4 µM
- TGI [43]: 31.4 µM
- GI50 [44]: 3.81 µM
- TGI [44]: 14.6 µM
- GI50 [45]: 21.7 µM
- TGI [45]: 79.4 µM
- GI50 [46]: 18.2 µM
- TGI [46]: 67 µM
- GI50 [47]: 1780 nM
- TGI [47]: 3.45 µM
- GI50 [48]: 5.5 µM
- TGI [48]: 18 µM
- GI50 [49]: > 100 µM
- TGI [49]: > 100 µM
- GI50 [50]: 1760 nM
- TGI [50]: 3.6 µM
- GI50 [51]: 14.8 µM
- TGI [51]: 28 µM
- GI50 [52]: 5.37 µM
- TGI [52]: 17.6 µM
- GI50 [53]: 19.2 µM
- TGI [53]: 43.3 µM
- GI50 [54]: 2460 nM
- TGI [54]: 6.86 µM
- GI50 [55]: 10.9 µM
- TGI [55]: 22.9 µM
- GI50 [56]: 1790 nM
- TGI [56]: 3.64 µM
- GI50 [57]: 17.2 µM
- TGI [57]: 30.9 µM
- GI50 [58]: 1680 nM
- TGI [58]: 3.2 µM
